Data set [1] relates to C57BL/6J mice. In words: Oral glucose tolerance test (OGTT), blood glucose. Conditions: for AUC0-120min of blood glucose vs vehicle control group / BG values after glucose treatment vs HMS5552-40 mg/kg group / AUC0-120min of blood glucose vs corresponding groups of HMS5552 / BG values after glucose treatment vs vehicle control group: OGTT; for AUC0-120min of blood glucose vs vehicle control group: all low, middle, high dose groups; for AUC0-120min of blood glucose vs vehicle control group / BG values after glucose treatment vs HMS5552-40 mg/kg group / AUC0-120min of blood glucose vs corresponding groups of HMS5552 / BG values at 0 min (pre-glucose) vs vehicle control group / BG values after glucose treatment vs vehicle control group: PO; for BG values after glucose treatment vs HMS5552-40 mg/kg group: high dose group (Compound 3 49.1, Compound 6 46.1, Compound 7 48.6 mg/kg); for AUC0-120min of blood glucose vs corresponding groups of HMS5552: middle and high dose levels (equimolar to 15 and 40 mg/kg HMS5552); for BG values at 0 min (pre-glucose) vs vehicle control group: all treatment groups, 1 hour after administration; for BG values after glucose treatment vs vehicle control group: high dose group (HMS5552 40 mg/kg; Compound 3 49.1 mg/kg). The format is in vivo. As for the experimental part: (§1) 104 C57BL/6J mice were randomly divided into 13 groups according to body weight, 8 mice per group. The first group were administered with vehicle solvent (5 mL/kg, PO) as the control group, other groups were administered with corresponding concentration of test compounds (5 mL/kg, PO). […] The oral glucose tolerance test (OGTT) was performed 1 hour after administration of test compounds. Blood glucose (BG) were measured at −60 min (pre-dose), 0 min (pre-glucose), 15 min, 30 min, 60 min and 120 min after glucose treatment. Blood samples (40 μl) were collected from tail veins at 0 min (pre-glucose), and 15 min (post-glucose) to separate plasma for insulin detection.
(§2) All data was transferred into an Excel spreadsheet. Blood glucose was expressed in mg/dL. All values were expressed as Mean±SEM. The significance of the differences between groups were evaluated by one-way ANOVA or two-way ANOVA followed by Dunnett's multiple comparisons test or Tukey's multiple comparisons test using GraphPad Prism 8. A p value of less than 0.05 is considered statistically significant.

In data set [2] the test system is C57BL/6J mice. In words: Plasma insulin levels during OGTT. The settings on record: for Insulin levels at 0 min vs vehicle control group and HMS5552-40 mg/kg group: 0 min (pre-glucose); for Insulin levels at 15 min vs vehicle control group / Insulin levels at 15 min vs corresponding groups of HMS5552: 15 min post-glucose. Format: in vivo. The procedure:
as §1, §2

The nature of data set [3]: Stability test of compounds in Simulated Gastric Fluid (SGF). Format: in vitro ADME. The settings on record: for Remaining of Test Compound (%): SGF pH about 1.20, 37° C., 2 μM; for Stability in SGF (in words): 24 hours.
Description: The pH of the test solution was about 1.20±0.05.
(§3) Then 200 μL of supernatant was pipetted and mixed completely again with 400 μL of cold acetonitrile containing 200 ng/mL tolbutamide (internal standard). • 7) All samples were centrifuged at 4000 rpm, 4° C. for 20 min. • 8) 60 μL of supernatant was pipetted and mixed with 180 μL of ultra-pure water, and the mixture was mixed completely for LC-MS/MS analysis.
Data set [4] in a line: Simulated metabolic test of compounds in Human Intestine S9. The format is in vitro ADME. Conditions: for Remaining of Test Compound (%): HIS9 0.5 mg/mL, 37° C.
Description: Preparation of Phosphate Buffer (PB): Dissolve 73.21 g K2TIPO4·3H2O (AR grade) and 10.78 g KH2PO4 (AR grade) in ultra-pure water to make the final volume to 4000 mL and the final concentration to 100 mM. The pH of the final test solution was adjusted to pH 7.40±0.10 with H3PO4/KOH.
An Apricot automation workstation was used to add 50 μL/well of HIS9 solution to the corresponding wells of all reaction plates (blank, T0, T5, T15, T30, T45, T60).
Using an Apricot automation workstation, 2 μL/well of test compound working solution was added to the corresponding wells of all 96-well reaction plates except the blank (T0, T5, T15, T30, T45, T60).
An Apricot automation workstation was used to add 48 μL/well of PB to the corresponding wells of every reaction plate (Blank, T0, T5, T15, T30, T45, T60) to start the reaction.
The reaction plates were incubated at 37° C., and timer was started. An Apricot automation workstation was used to add 300 μL/well of stop solution (cold acetonitrile containing 200 ng/mL tolbutamide (internal standard)) to the corresponding wells of each reaction plate at its appropriate end time point to terminate the reaction.
Each plate was sealed and shaken for 10 minutes. After shaking, each plate was centrifuged at 4000 rpm and 4° C. for 20 minutes. After centrifugation, 100 μL of supernatant was transferred from each reaction plate to its corresponding bioanaylsis plate, and mixed well with 300 μL ultra-pure water.
The nature of data set [5]: Pharmacokinetic studies in male SD rats (IV bolus and gavage). Conditions: rat, in vivo.
Description: Samples were placed on wet ice until centrifugation (within 30 min). […] Supernatant plasma was pipetted, then quickly frozen over dry ice and kept at −60° C. or lower temperature until LC-MS/MS analysis.
For data set [6] the following is noted: for Remaining of Test Compound (%): SIF pH about 6.80, 37° C., 2 μM.
Description: Preparation of Simulated Intestinal Fluid (SIF): Dissolve 0.136 g KH2PO4 and 0.2 g pancreatin with water and make up the final volume to 20 mL. The pH of the test solution was about 6.80±0.05.
as §3
A further data set concerns Caco-2 cells. In words: Bi-directional permeability test using Caco-2 cells. The settings on record: for The average Apparent Permeability Papp A→B: 2 hours, pH 7.40.
Where [7] appears, read: high dose (Compound 3 49.1, Compound 6 46.1, Compound 7 48.6 mg/kg).
The mark [8] stands for this setting: high dose (Compound 6 46.1, Compound 7 48.6 mg/kg).
The mark [9] stands for this setting: middle dose (Compound 3 18.4, Compound 7 18.2 mg/kg).
The mark [10] stands for this setting: Caco-2, Compound 3 concentration 2.00 μM.
Setting [11] is: Caco-2, Compound 3 concentration 10.0 μM.
Setting [12] is: Caco-2, Compound 3 concentration 30.0 μM.

Consider four compounds from patent publication US12054477B2, “Prodrug of pyrrolidone derivatives as glucokinase activator” (HUA MEDICINE (SHANGHAI) LTD., priority 2021, dated 2024).

Where two headings read alike, the source gives them in different places.

On to `CC(C)C[C@@H](C(=O)Nc1ccn(C[C@@H](O)COC(=O)[C@H](C)N)n1)N1CC(Oc2ccccc2Cl)=CC1=O` [Compound 6], for which, in the data set with C57BL/6J mice [1], the “Insulin secretion and glucose-lowering effect as compared to HMS5552 (in words)” value is “increased insulin secretion and greater glucose-lowering effect as compared to HMS5552”; the “AUC0-120min of blood glucose vs vehicle control group” value is recorded as “significantly lower than the vehicle control group, with dose-response relationship”; the “BG values after glucose treatment vs HMS5552-40 mg/kg group” value (“BG values … vs HMS5552-40 mg/kg group” below) is “significantly lower than HMS5552-40 mg/kg group at 15 min, 30 min, 60 min, and 120 min”; the “AUC0-120min of blood glucose vs corresponding groups of HMS5552” value was “significantly lower than the corresponding groups of HMS5552 (P<0.01)”. The “BG values at 0 min (pre-glucose) vs vehicle control group” value in the data set on C57BL/6J mice [1] is recorded as “overall lower than the vehicle control group, with dose-response relationship”. In the data set on C57BL/6J mice [2] (setting [7]), the “Insulin levels at 0 min vs vehicle control group and HMS5552-40 mg/kg group” value is “significantly higher than the vehicle control group and HMS5552-40 mg/kg group at 0 min”; the “Insulin levels at 15 min vs vehicle control group” value is “significantly higher than the vehicle control group at 15 min”. The “Insulin levels at 15 min vs corresponding groups of HMS5552” value in the data set with C57BL/6J mice [2] (setting [8]) is “significantly higher than the corresponding groups of HMS5552 at 15 min”.

With `CC(C)C[C@@H](C(=O)Nc1ccn(C[C@@H](O)COC(=O)[C@@H](N)C(C)C)n1)N1CC(Oc2ccccc2Cl)=CC1=O` [Compound 7], the “Remaining of Test Compound (%)” value in data set [3] (time point 0 hr) is reported as 100.00%; in data set [3] (time point 1 hr), 103.14%; in data set [3] (time point 2 hr), 104.44%; in data set [3] (time point 6 hr), 102.68%; in data set [3] (time point 24 hr), 108.07%; in data set [4] (time point 0 min), 100%. For the same compound, the “Remaining of Test Compound (%)” value was 30.7% in data set [4] (time point 5 min); 18.8% in data set [4] (time point 15 min); 7.2% in data set [4] (time point 30 min); 3.9% in data set [4] (time point 45 min); 2.7% in data set [4] (time point 60 min); 100.00% in data set [6] (time point 0 hr). Also, the “Remaining of Test Compound (%)” value was found to be 25.13% in data set [6] (time point 1 hr), 3.50% in data set [6] (time point 2 hr), 4.88% in data set [6] (time point 6 hr) and 0.00% in data set [6] (time point 24 hr). Besides, the “Stability in SGF (in words)” value in data set [3] was “stable in SGF for 24 hours”. Further, the “Metabolism in human intestinal S9 (in words)” value in data set [4] (HIS9) is reported as “well metabolized in human intestinal S9”. The “Exposures (Cmax, Cmax ratio, AUC, AUC ratio) when administered orally vs parent drug (in words)” value in data set [5] (male, SD, po) was “comparable to the parent drug HIMS5552”. In data set [5], the “Metabolism after intravenous injection (in words)” value is given as “metabolized very rapidly in rats by intravenous injection”. In the data set with C57BL/6J mice [1], the “Insulin secretion and glucose-lowering effect as compared to HMS5552 (in words)” value is “increased insulin secretion and greater glucose-lowering effect as compared to HMS5552”. Besides, the “AUC0-120min of blood glucose vs vehicle control group” value in the data set on C57BL/6J mice [1] is recorded as “significantly lower than the vehicle control group, with dose-response relationship”. Besides, the “BG values … vs HMS5552-40 mg/kg group” value in the data set on C57BL/6J mice [1] is “significantly lower than HMS5552-40 mg/kg group at 15 min, 30 min, 60 min, and 120 min”. The “AUC0-120min of blood glucose vs corresponding groups of HMS5552” value in the data set with C57BL/6J mice [1] was “significantly lower than the corresponding groups of HMS5552 (P<0.01)”. For the same compound, the “BG values at 0 min (pre-glucose) vs vehicle control group” value in the data set with C57BL/6J mice [1] is “overall lower than the vehicle control group, with dose-response relationship”. Moreover, in the data set with C57BL/6J mice [2] (setting [7]), the “Insulin levels at 0 min vs vehicle control group and HMS5552-40 mg/kg group” value was “significantly higher than the vehicle control group and HMS5552-40 mg/kg group at 0 min”. The “Insulin levels at 15 min vs vehicle control group” value in the data set on C57BL/6J mice [2] (setting [7]) and in the data set with C57BL/6J mice [2] (setting [9]) was “significantly higher than the vehicle control group at 15 min” each time. In addition, the “Insulin levels at 15 min vs corresponding groups of HMS5552” value with C57BL/6J mice [2] (setting [8]) was “significantly higher than the corresponding groups of HMS5552 at 15 min”. Further, in data set [6], the “Degradation in SIF (in words)” value is on record as “extensively degraded in SIF”.

By Tmax is commonly meant the time from dosing to the highest level. For `CC(C)C[C@@H](C(=O)Nc1ccn(C[C@@H](O)COC(=O)c2cccnc2)n1)N1CC(Oc2ccccc2Cl)=CC1=O` [Compound 3], the “Stability in SGF (in words)” value in data set [3] is on record as “stable in SGF for 24 hours”. Also, in data set [4] (HIS9), the “Metabolism in human intestinal S9 (in words)” value was “well metabolized in human intestinal S9”; the “Time within which completely metabolized and converted into parent drug HMS5552” value is at most 5 min. In addition, the “Remaining of Test Compound (%)” value in data set [4] (time point 5 min) is recorded as 0%. For the same compound, the “Remaining of Test Compound (%)” value in data set [4] (time point 15 min) is 0%. Further, the “Remaining of Test Compound (%)” value in data set [4] (time point 30 min) is recorded as 0%. For the same compound, the “Remaining of Test Compound (%)” value in data set [4] (time point 45 min) is 0%. Further, in data set [4] (time point 60 min), the “Remaining of Test Compound (%)” value is recorded as 0%. Further, in data set [5], the “Metabolism after intravenous injection (in words)” value is on record as “metabolized very rapidly in rats by intravenous injection”. Moreover, in data set [5] (male SD rats, IV bolus 10 mg/kg, analyte prodrug), the clearance was found to be 290 mL/min/kg. Moreover, the Tmax in data set [5] (male SD rats, PO 30 mg/kg, analyte prodrug, read-out: Tmax (median)) amounted to 15 min. In addition, in the data set on C57BL/6J mice [1], the “Insulin secretion and glucose-lowering effect as compared to HMS5552 (in words)” value was “increased insulin secretion and greater glucose-lowering effect as compared to HMS5552”; the “AUC0-120min of blood glucose vs vehicle control group” value is “significantly lower than the vehicle control group, with dose-response relationship”; the “BG values … vs HMS5552-40 mg/kg group” value is “significantly lower than HMS5552-40 mg/kg group at 30 min, 60 min, and 120 min”; the “BG values after glucose treatment vs vehicle control group” value was “significantly lower than the vehicle control group at 15 min, 30 min, 60 min, and 120 min”. Moreover, in the data set with C57BL/6J mice [1], the “AUC0-120min of blood glucose vs corresponding groups of HMS5552” value is listed as “significantly lower than the corresponding groups of HMS5552 (P<0.01)” and the “BG values at 0 min (pre-glucose) vs vehicle control group” value is “overall lower than the vehicle control group, with dose-response relationship”. In the data set with C57BL/6J mice [2] (setting [7]), the “Insulin levels at 0 min vs vehicle control group and HMS5552-40 mg/kg group” value was “significantly higher than the vehicle control group and HMS5552-40 mg/kg group at 0 min”; the “Insulin levels at 15 min vs vehicle control group” value was “significantly higher than the vehicle control group at 15 min”. For the same compound, the “Insulin levels at 15 min vs corresponding groups of HMS5552” value in the data set on C57BL/6J mice [2] (middle dose (Compound 3 18.4 mg/kg)) is on record as “significantly higher than the corresponding groups of HMS5552 at 15 min”. Also, in the data set on C57BL/6J mice [2] (setting [9]), the “Insulin levels at 15 min vs vehicle control group” value was “significantly higher than the vehicle control group at 15 min”. The “Degradation in SIF (in words)” value in data set [6] is given as “extensively degraded in SIF”. Moreover, in the data set on Caco-2 cells (setting [10]), the “Average Recovery Rate (%) A→B” value turned out to be 52.9%, the “Average Recovery Rate (%) B→A” value worked out at 87.1% and the “The average Apparent Permeability Papp A→B” value was 0.02977 10^−6 cm/s. Further, in the data set on Caco-2 cells (setting [11]), the “Average Recovery Rate (%) A→B” value was 37.5%, the “Average Recovery Rate (%) B→A” value was determined as 81.6% and the “The average Apparent Permeability Papp A→B” value is on record as 0.03187 10^−6 cm/s. Further, in the data set with Caco-2 cells (setting [12]), the “Average Recovery Rate (%) B→A” value is 82.2% and the “The average Apparent Permeability Papp A→B” value was 0.04322 10^−6 cm/s.

In the case of `CC(C)C[C@@H](C(=O)Nc1ccn(C[C@@H](O)CO)n1)N1CC(Oc2ccccc2Cl)=CC1=O` [HMS5552, (S)-2-[4-(2-chloro-phenoxy)-2-oxo-2,5-dihydro-pyrrol-1-yl]-4-methyl-pentanoic acid [1-((R)-2,3-dihydroxy-propyl)-1H-pyrazol-3-yl]-amide, reference compound], in the data set on C57BL/6J mice [1], the “AUC0-120min of blood glucose vs vehicle control group” value is on record as “significantly lower than the vehicle control group, with dose-response relationship”; the “BG values after glucose treatment vs vehicle control group” value is “significantly lower than the vehicle control group at 30 min, 60 min and 120 min”; the “BG values at 0 min (pre-glucose) vs vehicle control group” value was “overall lower than the vehicle control group, with dose-response relationship”. For the same compound, the “Insulin levels vs vehicle control group” value in the data set with C57BL/6J mice [2] (HMS5552 groups, 0 min and 15 min) was “slightly higher than the vehicle control group at 0 min and 15 min, without significant difference”.
